We go through two compounds from patent US12491182B2, “Polymorphs of triazole antifungal compound PC945” (Pulmocide Limited, priority 2019, dated 2025).

A short description of series [1]: Micronisation: particle size distribution and polymorphic integrity. The series is classed as physicochemical. As to conditions: for polymorphic integrity during micronisation (XRPD): XRPD trace after milling compared with before; for particle size distribution D10 / particle size distribution D50 / particle size distribution D90: after micronisation. The source says: Liquid suspension and aerosol formulations (whether pressurised or unpressurised) will typically contain the compound of the invention in particulate form, for example with a D50 of 0.5-10 μm, suitably around 1-5 μm, such as 1-2 μm. Suitably, the compound of the invention in particulate form has a D10 of 0.2 to 1 μm, such as 0.2 to 0.5 μm. Suitably, the compound of the invention in particulate form has a D90 of 2 to 6 μm such as 3 to 4 μm. The particulate form of the compound may, for example, be a micronised form. Micronisation may be performed using a jet mill such as those manufactured by Hosokawa Alpine. The resultant particle size distribution may be measured using laser diffraction (e.g. with a Malvern Mastersizer 2000S instrument). Particle size distributions may be represented using D10, D50 and D90 values. The Dso median value of particle size distributions is defined as the particle size in microns that divides the distribution in half. The measurement derived from laser diffraction is more accurately described as a volume distribution and consequently the D50 value obtained using this procedure is more meaningfully referred to as a Dv50 value (median for a volume distribution). As used herein Dv values refer to particle size distributions measured using laser diffraction. Similarly, D10 and D90 values, used in the context of laser diffraction, are taken to mean Dv10 and Dv90 values and refer to the particle size whereby 10% of the distribution lies below the D10 value, and 90% of the distribution lies below the D90 value, respectively.
A sample of crude input material (100 g, Form 3) was suspended in a mixture of 5% water in acetone (1.00 L), a seed of Form 1 (100 mg) was added and the mixture was stirred at RT overnight. The suspension was filtered and the filter cake was washed with a mixture of 5% water in acetone (20 mL) and the solids dried at 40° C. to provide polymorphic Form 1 as a white powder (85.5 g, 85.5% recovery, 98.7% purity by HPLC) as determined from its DSC trace (FIG. 9). Micronisation of the product so obtained provided a powder for which the particle size distribution, expressed in D values, was as follows: […].
Micronisation of the product so obtained provided a powder for which the particle size distribution, expressed in D values, was as follows: […]. It will be appreciated by those skilled in the art that these characteristics are suitable for a product intended for administration by inhalation. […] The Form 2 polymorph is therefore susceptible to and stable towards the micronisation process required to derive a material with the properties necessary for its intended purpose.

Series [2] in a line: Thermo-gravimetric analysis (degradation onset). The series is classed as physicochemical. How it is done: TGA data were collected on a TA Instrument Q500 TGA, equipped with a 16 position auto-sampler. The instrument was temperature calibrated using certified Alumel and Nickel. Typically 5-10 mg of sample was loaded onto a pre-tared aluminium DSC pan and heated at 10° C./min from ambient temperature to 350° C. A nitrogen purge at 60 mL/min was maintained over the sample. The instrument control software was Advantage for Q Series v2.5.0.256 and Thermal Advantage v5.5.3 and the data were analysed using Universal Analysis v4.5A.
TGA profiling was carried out according to methods described above and was used to determine the amount of residual solvents associated with the polymorphs of Compound I. In addition, it was used to measure the quantity of solvent released on heating from the solvated forms of Compound I. Typical residual solvent levels found in samples of the polymorphs of Compound I are as follows.

`Cc1cc(N2CCN(c3ccc(C(=O)Nc4ccc(F)cc4)cc3)CC2)ccc1OC[C@@H]1CO[C@@](Cn2cncn2)(c2ccc(F)cc2F)C1` [Form 2, 4-(4-(4-(((3R,5R)-5-((1H-1,2,4-triazol-1-yl)methyl)-5-(2,4-difluorophenyl)tetrahydrofuran-3-yl)methoxy)-3-methylphenyl)piperazin-1-yl)-N-(4-fluorophenyl)benzamide]: in series [1], the “polymorphic integrity during micronisation (XRPD)” value is given as “no significant change”, the particle size distribution D10 amounted to 0.42 µm, the particle size distribution D50 was 1.24 µm and the particle size distribution D90 worked out at 3.57 µm. The “temperature at which sample begun to degrade (TGA)” value in series [2] (material isolated from MIBK) came out at 320 °C. In addition, in series [2] (sample derived from EtOH), the “temperature at which degradation started (TGA)” value is 320 °C.

On to `Cc1cc(N2CCN(c3ccc(C(=O)Nc4ccc(F)cc4)cc3)CC2)ccc1OC[C@@H]1CO[C@@](Cn2cncn2)(c2ccc(F)cc2F)C1` [Form 1, 4-(4-(4-(((3R,5R)-5-((1H-1,2,4-triazol-1-yl)methyl)-5-(2,4-difluorophenyl)tetrahydrofuran-3-yl)methoxy)-3-methylphenyl)piperazin-1-yl)-N-(4-fluorophenyl)benzamide], for which, in series [1], the “polymorphic integrity during micronisation (XRPD)” value is “polymorphic integrity was retained”, the particle size distribution D10 is 0.75 µm, the particle size distribution D50 is 1.59 µm and the particle size distribution D90 worked out at 3.23 µm. In addition, the “temperature from which degradation was evident (TGA)” value in series [2] (sample prepared from toluene) is 320 °C.
